Read-outs that look alike come from different tables or passages of the source.
Tests used:
[1] = tested on: CYP1A2, CYP2B6, CYP2C8, CYP2C9, CYP2CI9, or CYP3A4/5; experiment: CYP induction in human hepatocytes; type: in vitro ADME
[2] = tested on: Community-Acquired Bacterial Pneumonia (CABP); experiment: Two Phase 3 studies in CABP, clinical cure at TOC (single and integrated/combined); type: in vivo, human; settings: for Combined clinical cure rate: combined data of the two CAP studies, TOC
Method: (§1) In both treatment groups of CABP Study 1, two doses of oral clarithromycin (500 mg q12 h), were administered as adjunctive therapy starting on Study Day 1. No adjunctive macrolide therapy was used in CABP Study 2. Patients with new or progressive pulmonary infiltrate(s) on chest radiography and clinical signs and symptoms consistent with CABP with the need for hospitalization and IV therapy were enrolled in the studies. Treatment duration was 5 to 7 days. A switch to oral therapy was not allowed. The Modified Intent-to-Treat Efficacy (MITTE) population, included all patients who received any amount of study drug according to their randomized, treatment group and were in PORT (Pneumonia Outcomes Research Team) Risk Class III or IV.
(§2) The primary efficacy endpoint was the clinical response at the Test of Cure (TOC) visit in the co-primary Ce and MITTE populations (Table 4).

Escherichia coli = experiment: Integrated Phase 3 CABP studies, clinical cure by infecting pathogen; type: in vivo; settings: ME patients
Method: as §1, §2

Haemophilus influenzae = experiment: as above; type: in vivo; settings: ME patients
Method: as §1, §2

Klebsiella pneumoniae = experiment: as above; type: in vivo; settings: ME patients
Method: as §1, §2

Staphylococcus aureus = experiment: as above; type: in vivo; settings: ME patients
Method: as §1, §2

Streptococcus pneumoniae = experiment: as above; type: in vivo; settings: ME patients
Method: as §1, §2

[3] = tested on: MDRSP (multidrug-resistant); type: in vivo, Streptococcus pneumoniae; settings: CABP, ME patients
Method: as §1, §2

[4] = tested on: MSSA (methicillin-susceptible); experiment: Integrated Phase 3 CABP studies, clinical cure by infecting pathogen; type: in vivo, Staphylococcus aureus; settings: ME patients
Method: as §1, §2

[5] = tested on: community-acquired pneumonia (CAP); experiment: Example 4 Phase 3 study, ceftaroline vs ceftriaxone in CAP, efficacy; type: in vivo, human
Text: The secondary objectives of the study were to evaluate the following: clinical response at end-of-therapy (EOT); the microbiological favorable outcome rate at TOC; the overall (clinical and radiographic) success rate at TOC; the clinical and microbiological response by pathogen at TOC; clinical relapse at late follow-up (LFU); microbiological reinfection/recurrence at LFU; and safety.
The following criteria were used for evaluation: The primary efficacy outcome measures were the pet-subject clinical cure rate at test-of-cure (TOC) in the CE and MITTE Populations Subjects were considered clinically cured at TOC if they had total resolution of all signs and symptoms of the baseline infection, or improvement of the infection such that no further antimicrobial therapy was necessary.
(§3) Non-inferiority was concluded if the lower limit of the 95% CI was higher than −10%.

MDRSP [6] = experiment: Example 4 CAP study, outcome by baseline pathogen; type: in vivo, S. pneumoniae
Text: (§4) Per-pathogen clinical cure rate and favorable microbiological outcome rate at TOC in the mMITTE and ME Populations;

H. influenzae [7] = experiment: Example 4 CAP study, outcome by baseline pathogen; type: in vivo
Text: as §4

H. parainfluenzae [8] = experiment: Example 4 CAP study, outcome by baseline pathogen; type: in vivo
Text: as §4

K. pneumoniae = experiment: Example 4 CAP study, outcome by baseline pathogen; type: in vivo
Text: as §4

S. aureus [9] = experiment: Example 4 CAP study, outcome by baseline pathogen; type: in vivo
Text: as §4

S. pneumoniae [10] = experiment: Example 4 CAP study, outcome by baseline pathogen; type: in vivo
Text: as §4

[11] = tested on: community-acquired pneumonia (CAP); experiment: Example 5 Phase 3 study, ceftaroline vs ceftriaxone with adjunctive clarithromycin in CAP, efficacy; type: in vivo, human
Text: The secondary objective of the study was to evaluate the following: the clinical response at end-of-therapy (EOT); the microbiological favorable outcome rate at TOC; the overall (clinical and radiographic) success rate at TOC; the clinical and microbiological response by pathogen at TOC; clinical relapse at late follow-up (LFU); microbiological reinfection/recurrence at LFU; and safety.
The primary efficacy outcome measures were the per-subject clinical cure rate at TOC in the CE and MITTE Populations. Subjects were considered clinically cured at TOC if they had total resolution of all signs and symptoms of the baseline infection, or improvement of the infection such that no further antimicrobial therapy was necessary.
as §3

MDRSP [12] = experiment: Example 5 CAP study, outcome by baseline pathogen; type: in vivo, S. pneumoniae
Text: as §4

E. coli = experiment: Example 5 CAP study, outcome by baseline pathogen; type: in vivo
Text: as §4

H. influenzae [13] = experiment: Example 5 CAP study, outcome by baseline pathogen; type: in vivo
Text: as §4

H. parainfluenzae [14] = experiment: Example 5 CAP study, outcome by baseline pathogen; type: in vivo
Text: as §4

S. aureus [15] = experiment: Example 5 CAP study, outcome by baseline pathogen; type: in vivo
Text: as §4

S. pneumoniae [16] = experiment: Example 5 CAP study, outcome by baseline pathogen; type: in vivo
Text: as §4

[17] = human, in vivo
Method: (§5) Study-Drug: Ceftaroline fosamil was administered in two consecutive 300 mg intravenous (IV) infusions over 30 minutes, every 12 hours (q12h). The 600-mg dose of ceftaroline fosamil infused over 60 minutes was split into two infusions in order to maintain the blind. For subjects with moderate renal impairment (30 ml/min<CrCl≤50 ml/min), as estimated by the Cockroft-Gault formula, unblinded pharmacy staff or unblinded study staff could adjust the dose of ceftaroline fosamil to two consecutive 200 mg infusions and readjust dose to two 300 mg infusions when renal function improved (CrCl>50 mL/min). The duration of treatment was between 5 to 7 days.
(§6) All subjects who received any amount of study drug were included in the safety analysis. Safety measures included monitoring for adverse events (AE) up to TOC and serious adverse events (SAE) through LFU; recording vital signs, physical examination, electrocardiogram (ECG), and clinical laboratory findings (clinical chemistry, hematology, and urinalysis), at prespecified times throughout the study.

[18] = human, in vivo; remark: listed apart in the source
Method: (§7) Study drug: Ceftaroline fosamil was administered in two consecutive 300 mg intravenous (IV) infusions over 30 minutes, every 12 hours (q12h). The 600-mg dose of ceftaroline fosamil infused over 60 minutes was split into two infusions in order to maintain the blind. For subjects with moderate renal impairment (30 mL/min<CrCl≤50 mL/min), as estimated by the Cockroft-Gault formula, unblinded pharmacy staff or unblinded study staff could adjust the dose of ceftaroline fosamil to two consecutive 200 mg infusions and readjust dose to two 300 mg infusions when renal function improved (CrCl>50 mL/min). The duration of treatment was between 5 to 7 days.
(§8) All subjects initially received two doses (500 mg every 12 hours) of oral adjunctive therapy with clarithromycin following randomization.
(§9) All subjects who received any amount of study drug were included in the safety analysis. Safety measures included monitoring for adverse events (AE) up to TOC and serious adverse events (SAE) through LFU; recording vital signs, physical examination, electrocardiogram (ECG), and clinical laboratory findings (clinical chemistry, hematology, and urinalysis); at prespecified times throughout the study.

[19] = Example 4 CAP study, safety
Method: as §5, §6

[20] = Example 5 CAP study, safety
Method: as §7, §8, §9

Structure (SMILES): CCO/N=C(\C(=O)N[C@H](C(=O)[O-])[C@@H]1NC(C(=O)[O-])=C(Sc2nc(-c3cc[n+](C)cc3)cs2)CS1)c1nsc(N)n1.[H+] [ceftaroline M-1]
- induction of CYP isoenzymes [1]: not inducers

Structure (SMILES): CO/N=C(\C(=O)N[C@@H]1C(=O)N2C(C(=O)O)=C(CSc3nc(=O)c(=O)[nH]n3C)CS[C@H]12)c1csc(N)n1 [Ceftriaxone, ceftriaxone, reference compound]
- Clinical cure rate at TOC ([2]; CABP Study 1, CE population): 183/234 (78.2%)
- Clinical cure rate at TOC ([2]; CABP Study 1, MITTE population): 233/300 (77.7%)
- Clinical cure rate at TOC ([2]; CABP Study 2, CE population): 166/215 (77.2%)
- Clinical cure rate at TOC ([2]; CABP Study 2, MITTE population): 206/273 (75.5%)
- Clinical cure rate at TOC ([2]; Integrated Studies, CE population, 5 to 7 days of therapy): 349/449 (77.7%)
- Clinical cure rate at TOC ([2]; Integrated Studies, MITTE population): 439/573 (76.6%)
- Combined clinical cure rate ([2]; CE): 349/449 (77.7) %
- Combined clinical cure rate ([2]; ME): 111/147 (75.5) %
- Combined clinical cure rate ([2]; MITTE): 439/573 (76.6) %
- Combined clinical cure rate ([2]; mMITTE): 126/168 (75.0) %
- Clinical cure rate by infecting pathogen (Escherichia coli): 9/12 (75.0%)
- Clinical cure rate by infecting pathogen (Haemophilus influenzae): 17/20 (85.0%)
- Clinical cure rate by infecting pathogen (Klebsiella pneumoniae): 10/12 (83.3%)
- Clinical cure rate by infecting pathogen (Staphylococcus aureus): 15/27 (55.6%)
- Clinical cure rate by infecting pathogen (Streptococcus pneumoniae): 41/59 (69.5%)
- Clinical cure rate by infecting pathogen [3]: 1/4 (25.0%)
- Clinical cure rate by infecting pathogen [4]: 14/25 (56.0%)
- Clinical Success at the TOC Visit ([5]; Example 4, CE population): 166 (77.2) %
- Favorable Microbiological Outcome at the TOC Visit ([5]; Example 4, ME population): 63 (82.9) %
- Clinical Success at the TOC Visit ([5]; Example 4, MITTE population): 206 (75.5) %
- Favorable Microbiological Outcome at TOC by Baseline Pathogen (MDRSP [6]; Example 4, ME): 2/4 (50.0)
- Clinical Cure Rate at the TOC Visit by Baseline Pathogen (MDRSP [6]; Example 4, ME Population): 1/4 (25.0)
- Favorable Microbiological Outcome at TOC by Baseline Pathogen (H. influenzae [7]; Example 4, ME): 11/12 (91.7)
- Clinical Cure Rate at the TOC Visit by Baseline Pathogen (H. influenzae [7]; Example 4, ME Population): 11/12 (91.7)
- Favorable Microbiological Outcome at TOC by Baseline Pathogen (H. parainfluenzae [8]; Example 4, ME): 7/7 (100.0)
- Clinical Cure Rate at the TOC Visit by Baseline Pathogen (H. parainfluenzae [8]; Example 4, ME Population): 6/7 (85.7)
- Favorable Microbiological Outcome at TOC by Baseline Pathogen (K. pneumoniae; Example 4, ME): 7/8 (87.5)
- Clinical Cure Rate at the TOC Visit by Baseline Pathogen (K. pneumoniae; Example 4, ME Population): 7/8 (87.5)
- Favorable Microbiological Outcome at TOC by Baseline Pathogen (S. aureus [9]; Example 4, ME): 11/15 (73.3)
- Clinical Cure Rate at the TOC Visit by Baseline Pathogen (S. aureus [9]; Example 4, ME Population): 8/15 (53.3)
- Favorable Microbiological Outcome at TOC by Baseline Pathogen (S. pneumoniae [10]; Example 4, ME): 25/32 (78.1)
- Clinical Cure Rate at the TOC Visit by Baseline Pathogen (S. pneumoniae [10]; Example 4, ME Population): 23/32 (71.9)
- Clinical Success at the TOC Visit ([11]; Example 5, CE population): 183 (78.2) %
- Favorable Microbiological Outcome at the TOC Visit ([11]; Example 5, ME population): 56 (78.9) %
- Clinical Success at the TOC Visit ([11]; Example 5, MITTE population): 233 (77.7) %
- Favorable Microbiological Outcome at the TOC Visit ([11]; Example 5, mMITTE population): 63 (78.8) %
- Favorable Microbiological Outcome at TOC by Baseline Pathogen (MDRSP [12]; Example 5, ME): 0
- Clinical Cure Rate at the TOC Visit by Baseline Pathogen (MDRSP [12]; Example 5, ME Population): 0
- Favorable Microbiological Outcome at TOC by Baseline Pathogen (E. coli; Example 5, ME): 6/6 (100.0)
- Clinical Cure Rate at the TOC Visit by Baseline Pathogen (E. coli; Example 5, ME Population): 5/6 (83.3)
- Favorable Microbiological Outcome at TOC by Baseline Pathogen (H. influenzae [13]; Example 5, ME): 6/8 (75.0)
- Clinical Cure Rate at the TOC Visit by Baseline Pathogen (H. influenzae [13]; Example 5, ME Population): 6/8 (75.0)
- Favorable Microbiological Outcome at TOC by Baseline Pathogen (H. parainfluenzae [14]; Example 5, ME): 9/10 (90.0)
- Clinical Cure Rate at the TOC Visit by Baseline Pathogen (H. parainfluenzae [14]; Example 5, ME Population): 9/10 (90.0)
- Favorable Microbiological Outcome at TOC by Baseline Pathogen (S. aureus [15]; Example 5, ME): 8/12 (66.7)
- Clinical Cure Rate at the TOC Visit by Baseline Pathogen (S. aureus [15]; Example 5, ME Population): 7/12 (58.3)
- Favorable Microbiological Outcome at TOC by Baseline Pathogen (S. pneumoniae [16]; Example 5, ME): 18/27 (66.7)
- Clinical Cure Rate at the TOC Visit by Baseline Pathogen (S. pneumoniae [16]; Example 5, ME Population): 18/27 (66.7)
- Adverse event: COPD [17]: 5 (1.6) %
- Adverse event: Diarrhea [17]: 9 (2.9) %
- Adverse event: Head ache [17]: 5 (1.6) %
- Adverse event: Hypertension [17]: 8 (2.6) %
- Adverse event: Pleural effusion [17]: 7 (2.3) %
- Adverse event: Pneumonia [17]: 4 (1.3) %
- study-drug-related TEAE: alanine aminotransferase increased [17]: 1.0%
- study-drug-related TEAE: blood creatinine phosphokinase increased [17]: 0.7%
- study-drug-related TEAE: heartache [17]: 1.0%
- subjects with any study-drug-related TEAEs [17]: 13.7%
- Adverse event: Constipation [18]: 5 (1.6) %
- Adverse event: Hypertension [18]: 8 (2.6) %
- TEAEs assessed as drug related by the Investigators [18]: 12.7%
- study-drug-related TEAE: headache [18]: 0.0%
- study-drug-related TEAE: hepatic enzyme increased [18]: 1.0%
- study-drug-related TEAE: sinus bradychardia [18]: 1.0%
- hemolytic anemia [19]: No evidence of hemolytic anemia
- incidence of deaths [19]: 2.0%
- hemolytic anemia [20]: No evidence of hemolytic anemia
- percentage of deaths [20]: 2.6%
